Here are results for 13 compounds from patent US9751861B2, “N1-(3,3,3-trifluoro-2-hydroxo-2-methylpropionyl)-piperidine derivatives as inhibitors of pyruvate dehydrogenase kinase” (MERCK PATENT GMBH, priority 2013, dated 2017).

For one experiment, the system named is PDH-Elalpha (pSer300). Nature of the experiment: Cellular immunofluorescence assay in HEK293T cells. In kind it is cell-based. The settings on record: Homo sapiens, HEK-293T, 5 hours incubation, anti-PDH-E1alpha pSer300 immunofluorescence, read-out: IC50 (cell data). An outline of the steps: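 HEK293T cells were exposed to compound for 5 hours, then fixed, permeabilised and immunostained for PDH-Elalpha pSer300 with Hoechst counterstain, read by laser scanning cytometry. Percent effect was normalized to a pharmacological inhibitor control and fitted to dose-response curves.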

A further experiment addresses T1, PDHK2 (Homo sapiens, UniProt Q15119).
T1 construct: purchased Carna Bioscience
The experiment in a line: Biochemical activity testing of PDHK2: PDC inactivation assay. The settings on record: human rec PDHK2, PDC from porcine heart, ATP 5 μM; read-out: IC50 PDHK2 (enzyme assay). An outline of the steps:
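Human recombinant PDHK2 (137 nM final) preincubated 30 min at RT with porcine heart PDC (20 mU/ml) and compound in pH 7.0 phosphate buffer, then phosphorylated with 5 μM ATP for 30 min at 37 °C. Residual PDC activity read as NADH fluorescence increase (Ex 340/Em 450) over 45 min; inhibitor-free reaction as full value, 3 mM DCA as zero, IC50 derived.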

The target of another experiment is T2, human PDHK2 (12-407) (Homo sapiens, UniProt Q15119).
T2 construct: The human PDHK2 (12-407) was produced in E. coli; His-tag (cleaved yes); made in house; host or cells: E. coli
Nature of the experiment: Isothermal titration calorimetry (ITC) binding. The settings on record: 30° C., pH 7.5. An outline of the steps: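 Untagged PDHK2 (12-407) from E. coli at 50 μM titrated into 5 μM compound at 30° C in pH 7.5 HEPES/KCl/MgCl2/phosphate buffer, ≤1% DMSO. One-site fit gave KA, ΔH^obs and N after heat-of-dilution correction; protein concentration referenced to a standard inhibitor and compound concentration adjusted to 1:1 stoichiometry.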

Take `C[C@@](O)(C(=O)N1CCC(c2ccnn2-c2nc3ccccc3s2)CC1)C(F)(F)F` [Compound A117, (R)-1-[4-(2-Benzothiazol-2-yl-2H-pyrazol-3-yl)-piperidin-1-yl]-3,3,3-trifluoro-2-hydroxy-2-methyl-propan-1-one]: the values for the IC50 in the experiment with PDH-Elalpha (pSer300) and at PDHK2 were 3000 to 50000 nM and 300 to 3000 nM, respectively. Further, on human PDHK2 (12-407), the Kd was under 300 nM.

For the compound `C[C@@H]1CN(C(=O)[C@@](C)(O)C(F)(F)F)CC[C@@H]1c1ccnn1-c1ccc(F)cn1` [Compound A118, (R)-3,3,3-Trifluoro-1-{(3S,4S)-4-[2-(5-fluoro-pyridin-2-yl)-2H-pyrazol-3-yl]-3-methyl-piperidin-1-yl}-2-hydroxy-2-methyl-propan-1-one], the values for the IC50 with PDH-Elalpha (pSer300) and at PDHK2 were 300 to 3000 nM and under 300 nM, respectively. Further, the Kd at human PDHK2 (12-407) was under 300 nM.

`C[C@@H]1CN(C(=O)[C@@](C)(O)C(F)(F)F)CC[C@@H]1c1ccnn1-c1ccc(Cl)cc1` [Compound A119, (R)-1-{(3S,4S)-4-[2-(4-Chloro-phenyl)-2H-pyrazol-3-yl]-3-methyl-piperidin-1-yl}-3,3,3-trifluoro-2-hydroxy-2-methyl-propan-1-one]: the IC50 in the experiment on PDH-Elalpha (pSer300) and on PDHK2 was under 300 nM throughout. The Kd on human PDHK2 (12-407) is under 300 nM.

On to `C[C@@H]1CN(C(=O)[C@@](C)(O)C(F)(F)F)CC[C@@H]1c1ccnn1[C@H]1CC[C@@H](O)CC1` [Compound A120, (R)-3,3,3-Trifluoro-2-hydroxy-1-{(3S,4S)-4-[2-(4-hydroxy-cyclohexyl)-2H-pyrazol-3-yl]-3-methyl-piperidin-1-yl}-2-methyl-propan-1-one], for which the IC50 with PDH-Elalpha (pSer300) was 300 to 3000 nM; at PDHK2 it was under 300 nM. The compound further had a Kd at human PDHK2 (12-407) of under 300 nM.

Take `C[C@@H]1CN(C(=O)[C@@](C)(O)C(F)(F)F)CC[C@@H]1c1ccnn1[C@H]1CC[C@H](O)CC1` [Compound A121, (R)-3,3,3-Trifluoro-2-hydroxy-1-{(3S,4S)-4-[2-(4-hydroxy-cyclohexyl)-2H-pyrazol-3-yl]-3-methyl-piperidin-1-yl}-2-methyl-propan-1-one]: the 50% inhibitory concentration (IC50) is 300 to 3000 nM in the experiment with PDH-Elalpha (pSer300) and under 300 nM at PDHK2. This compound had an equilibrium dissociation constant (Kd) at human PDHK2 (12-407) of under 300 nM.

As for `C[C@@](O)(C(=O)N1CCC(c2cncn2-c2ccc(F)cc2)CC1)C(F)(F)F` [Compound A124, (R)-3,3,3-Trifluoro-1-{4-[3-(4-fluoro-phenyl)-3H-imidazol-4-yl]-piperidin-1-yl}-2-hydroxy-2-methyl-propan-1-one], the IC50 in the experiment on PDH-Elalpha (pSer300) and on PDHK2 was 300 to 3000 nM each time. Also, the Kd on human PDHK2 (12-407) was under 300 nM.

As to `C[C@@](O)(C(=O)N1CCC(c2cncn2-c2ccc(Cl)cc2)CC1)C(F)(F)F` [Compound A125, (R)-1-{4-[3-(4-Chloro-phenyl)-3H-imidazol-4-yl]-piperidin-1-yl}-3,3,3-trifluoro-2-hydroxy-2-methyl-propan-1-one], the IC50 with PDH-Elalpha (pSer300) and at PDHK2 was 300 to 3000 nM each time. The same compound yielded a Kd on human PDHK2 (12-407) of under 300 nM.

Consider `C[C@@](O)(C(=O)N1CCC(c2cncn2-c2ccc(Cl)cc2F)CC1)C(F)(F)F` [Compound A126, (R)-1-{4-[3-(4-Chloro-2-fluoro-phenyl)-3H-imidazol-4-yl]-piperidin-1-yl}-3,3,3-trifluoro-2-hydroxy-2-methyl-propan-1-one], for which the concentration for half-maximal inhibition (IC50) with PDH-Elalpha (pSer300) is 300 to 3000 nM; at PDHK2, under 300 nM. In addition, the Kd on human PDHK2 (12-407) is under 300 nM.

`C[C@@](O)(C(=O)N1CCC(c2cncn2-c2ccc(C(F)(F)F)cc2)CC1)C(F)(F)F` [Compound A127, (R)-3,3,3-Trifluoro-2-hydroxy-2-methyl-1-{4-[3-(4-trifluoromethyl-phenyl)-3H-imidazol-4-yl]-piperidin-1-yl}-propan-1-one]: the IC50 in the experiment on PDH-Elalpha (pSer300) and on PDHK2 was 300 to 3000 nM throughout. This compound also showed a Kd at human PDHK2 (12-407) of under 300 nM.

For the compound `C[C@@](O)(C(=O)N1CCC(c2conc2-c2ccccc2)CC1)C(F)(F)F` [Compound A128, (R)-3,3,3-Trifluoro-2-hydroxy-2-methyl-1-[4-(3-phenyl-isoxazol-4-yl)-piperidin-1-yl]-propan-1-one], the IC50 with PDH-Elalpha (pSer300) lay in the range of 3000 to 50000 nM; at PDHK2, 300 to 3000 nM. Besides, at human PDHK2 (12-407), the Kd was under 300 nM.

Turning to `C[C@@](O)(C(=O)N1CCC(c2conc2-c2ccc(F)cc2)CC1)C(F)(F)F` [Compound A129, (R)-3,3,3-Trifluoro-1-{^4-[3-(4-fluoro-phenyl)-isoxazol-4-yl]-piperidin-1-yl}-2-hydroxy-2-methyl-propan-1-one], the IC50 with PDH-Elalpha (pSer300) fell in the range of 3000 to 50000 nM; at PDHK2, 300 to 3000 nM. The compound further came in with a Kd at human PDHK2 (12-407) of under 300 nM.

With `C[C@@](O)(C(=O)N1CCC(c2cncn2-c2ccc(F)cc2F)CC1)C(F)(F)F` [Compound A130, (R)-1-{4-[3-(2,4-Difluoro-phenyl)-3H-imidazol-4-yl]-piperidin-1-yl}-3,3,3-trifluoro-2-hydroxy-2-methyl-propan-1-one], the IC50 with PDH-Elalpha (pSer300) and at PDHK2 was 300 to 3000 nM in each case. This compound had a Kd at human PDHK2 (12-407) of under 300 nM.

Consider `COc1ccc(-n2cncc2C2CCN(C(=O)[C@@](C)(O)C(F)(F)F)CC2)cc1` [Compound A131, (R)-3,3,3-Trifluoro-2-hydroxy-1-{4-[3-(4-methoxy-phenyl)-3 H-imidazol-4-yl]-piperidin-1-yl}-2-methyl-propan-1-one], for which the IC50 in the experiment with PDH-Elalpha (pSer300) and at PDHK2 was 300 to 3000 nM in each case. The same compound registered an equilibrium dissociation constant (Kd) at human PDHK2 (12-407) of under 300 nM.
